Data on 1 compound can be found in patent US20220220075A1, “SOLID FORM OF AROMATIC COMPOUND AND PREPARATION METHOD THEREFOR” (Sichuan Kelun-Biotech Biopharmaceutical Co., Ltd., priority 2019, published 2022).

The subject of series [1] is HEK293 cells. To be noted: statement in words; tests disclosed in WO2019105234A1; cited from earlier work.
Series [2] has as its target T1, PPAR δ (Homo sapiens, UniProt Q03181).
T1 sequence (Q03181 1-441): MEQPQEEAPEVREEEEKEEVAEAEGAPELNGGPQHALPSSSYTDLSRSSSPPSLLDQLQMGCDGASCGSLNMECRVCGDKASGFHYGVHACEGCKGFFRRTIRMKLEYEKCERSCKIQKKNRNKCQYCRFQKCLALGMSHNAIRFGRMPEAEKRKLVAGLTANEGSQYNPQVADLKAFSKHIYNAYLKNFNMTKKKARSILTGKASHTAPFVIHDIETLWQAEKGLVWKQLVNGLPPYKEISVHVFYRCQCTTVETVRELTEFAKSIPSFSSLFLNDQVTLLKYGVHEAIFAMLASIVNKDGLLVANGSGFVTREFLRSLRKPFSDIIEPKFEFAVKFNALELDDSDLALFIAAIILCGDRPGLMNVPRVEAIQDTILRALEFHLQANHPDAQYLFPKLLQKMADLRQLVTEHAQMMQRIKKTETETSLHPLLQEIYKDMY
The note with it: statement in words; tests disclosed in WO2019105234A1; cited from earlier work.

Series [3] has as its system HepG2 cells. The note with it: statement in words; tests disclosed in WO2019105234A1; cited from earlier work.
A short description of series [4]: High temperature stability test (purity by HPLC, XRPD). Type of series: physicochemical. To be noted: 60° C.; for Purity: sealed glass bottle. Here is the method:
(§1) In this experimental example, the chemical stability of crystalline form A was studied by high temperature and high humidity test.
(§2) Method for testing purity: high performance liquid chromatography (Chinese Pharmacopoeia, 2015 Edition, Four General Rules 0512) was used to test purify.
(§3) Chromatographic column: phenyl bonded silica gel was used as filler;
(§4) Mobile phase A: 5 mM ammonium acetate (pH 4.0);
(§5) Mobile phase B: Acetonitrile (containing 0.05% acetic acid);
(§6) Detection wavelength: 230 nm.
(§7) Elution condition: gradient elution.
The crystalline form A was placed in a sealed and clean glass bottle, and then the glass bottle was placed in a 60° C. constant temperature drying oven, and samples were taken on the […] and the 30th day, respectively, to detect impurity contents, and the purity results were shown in Table 2.

Series [5] can be described thus: High humidity stability test (purity by HPLC, XRPD). Type of series: physicochemical. To be noted: 25±2° C., 92.5% RH; for Purity: open dish. Here is the method:
as §1, §2, §3, §4, §5, §6, §7
The crystalline form A of the compound of Formula I was evenly spread into an open culture dish with a thickness of ≤5 mm, and placed in a constant temperature incubator at room temperature (25±2° C.) and relative humidity of 92.5% RH. […]

The nature of series [6]: Study on pharmacokinetics (PK) in rats. Type of series: in vivo, male SD rats. To be noted: PO, 5 mg/kg. Here is the method:
A sample of crystalline form A was administered to male SD rats by intragastric route (PO) to investigate its pharmacokinetic characteristics. The dose was 5 mg/kg, and 0.5% MC (methylcellulose sodium) was used as a solvent to prepare a suspension of crystalline form A. In the administration group, whole blood samples were collected before PO administration (0 h) and at time points of 0.083, 0.17, 0.25, 0.5, 1, 2, 4, 6, 8 and 24 hours after administration. The whole blood samples were anticoagulated with EDTA.K2, and plasma samples were obtained after centrifugation and stored at −80° C. for later testing. In this experiment, there were three animals in each group for parallel testing.
The plasma samples were treated by precipitating protein and then analyzed by LC-MS/MS. Using WinNonlin 6.3 software, the pharmacokinetic parameters was calculated by means of the non-compartmental model, and the results were shown in Table 1.

Series [7] addresses hERG (Homo sapiens, UniProt Q12809). To be noted: statement in words; tests disclosed in WO2019105234A1; cited from earlier work.
Where [8] appears, read: rat, male SD rats, suspension in 0.5% MC, plasma.

Each structure is given as a SMILES string.

Chain of hERG (Q12809 whole entry): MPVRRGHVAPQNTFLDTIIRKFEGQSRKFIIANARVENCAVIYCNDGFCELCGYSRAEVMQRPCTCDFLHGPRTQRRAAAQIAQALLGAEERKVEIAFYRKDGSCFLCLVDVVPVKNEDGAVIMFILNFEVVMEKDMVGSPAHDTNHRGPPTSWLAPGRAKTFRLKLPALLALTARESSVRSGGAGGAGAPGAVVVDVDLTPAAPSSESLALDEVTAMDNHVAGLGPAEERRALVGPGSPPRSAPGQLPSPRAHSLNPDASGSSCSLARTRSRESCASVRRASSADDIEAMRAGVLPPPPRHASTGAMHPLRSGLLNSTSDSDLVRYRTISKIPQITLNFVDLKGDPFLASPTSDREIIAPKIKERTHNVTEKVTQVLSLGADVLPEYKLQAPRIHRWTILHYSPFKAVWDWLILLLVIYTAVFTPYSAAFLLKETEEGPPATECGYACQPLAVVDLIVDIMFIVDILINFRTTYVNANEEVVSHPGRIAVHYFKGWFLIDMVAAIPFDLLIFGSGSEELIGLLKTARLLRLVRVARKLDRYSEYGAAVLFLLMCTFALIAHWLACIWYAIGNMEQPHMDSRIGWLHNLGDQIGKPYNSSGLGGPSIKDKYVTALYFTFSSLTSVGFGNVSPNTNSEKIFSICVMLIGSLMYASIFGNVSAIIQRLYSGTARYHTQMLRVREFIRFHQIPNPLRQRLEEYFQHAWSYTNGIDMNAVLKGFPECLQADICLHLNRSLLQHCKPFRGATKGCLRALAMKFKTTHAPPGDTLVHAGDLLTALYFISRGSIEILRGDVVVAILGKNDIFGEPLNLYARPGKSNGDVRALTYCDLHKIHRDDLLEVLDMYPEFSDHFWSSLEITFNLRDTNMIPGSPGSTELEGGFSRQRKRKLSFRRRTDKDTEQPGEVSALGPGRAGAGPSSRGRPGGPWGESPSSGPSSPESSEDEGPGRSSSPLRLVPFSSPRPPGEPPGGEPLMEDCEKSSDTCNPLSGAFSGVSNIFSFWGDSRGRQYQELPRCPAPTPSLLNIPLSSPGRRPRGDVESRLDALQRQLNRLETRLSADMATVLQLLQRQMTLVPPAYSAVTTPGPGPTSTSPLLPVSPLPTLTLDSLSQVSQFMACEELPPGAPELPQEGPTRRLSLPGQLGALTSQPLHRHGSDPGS

In the case of `COc1nc2ccccc2cc1C(=O)/C=C/c1cc(C)c(OC(C)(C)C(=O)O)c(C)c1` [crystalline form A, (E)-2-(4-(3-(2-methoxyquinolin-3-yl)-3-oxo-1-propen-1-yl)-2,6-dimethylphenoxy)-2-methyl-propionic acid], the “toxicity to HEK293 cells” value in series [1] was “low toxicity”. Moreover, the “agonistic effect on PPAR δ” value in series [2] is on record as “obvious agonistic effect”. Also, the “toxicity to HepG2 cells” value in series [3] was “low toxicity”. Moreover, the “change of crystalline form by XRPD” value in series [4] (after 30 days of storage) and in series [5] (after 30 days of storage) was “did not change” each time. Moreover, the Purity is reported as 99.51% in series [4] (0th day); 99.53% in series [4] (10th day); 99.54% in series [4] (30th day); 99.51% in series [5] (0th day); 99.53% in series [5] (10th day); 99.54% in series [5] (30th day). In addition, the “change of purity under high temperature conditions” value in series [4] (up to 30 days) was “no significant change”. Further, in series [5] (up to 30 days), the “change of purity under high humidity conditions” value is “no significant change”. Further, the “exposure in rat plasma” value in series [6] is “better exposure”. For the same compound, the AUC(0-t) in series [6] (setting [8]) came to 777 ng·h/mL. In series [6] (setting [8]), the concentration peaked (Cmax) at 522 ng/mL. In addition, the “inhibitory effect on hERG” value in series [7] is recorded as “no obvious inhibitory effect”.

By AUC(0-t) is commonly meant exposure summed from dosing to a finite time, without extrapolation to infinity. As a reminder, the Cmax is the highest concentration seen after dosing.
